From patent publication US20260070919A1, “CRYSTAL FORM OF FIVE-MEMBERED AND SIX-MEMBERED HETEROCYCLIC COMPOUND, PREPARATION METHOD THEREFOR, AND USE THEREOF” (BEIJING MAXINOVEL PHARMACEUTICALS CO., LTD., priority 2022, published 2026) come the findings set out here.

Holding throughout (format): physicochemical
Series [1] in a line: Dynamic vapor sorption (DVS). The following applies: for weight gain from 0% RH to 95% RH (moisture absorption): 25° C., weight percentage. Here is the method:
A sample of crystal form I of the compound represented by formula 1 (10 mg) was weighed, and dried for 60 minutes at a temperature of 25° C. and a humidity of 0% RH. The moisture absorption characteristics of the sample were tested as the humidity changed from 0% RH to 95% RH, and the desorption characteristics of the sample were tested as the humidity changed from 95% RH to 0% RH. The humidity change in each step was 5% RH, with an equilibrium criterion of a weight change rate of less than 0.01%/min within 5 minutes and a maximum equilibration time of 2 hours.
A sample of crystal form II of the compound represented by formula 1 (10 mg) was weighed, and dried for 60 minutes at a temperature of 25° C. and a humidity of 0% RH. The moisture absorption characteristics of the sample were tested as the humidity changed from 0% RH to 95% RH, and the desorption characteristics of the sample were tested as the humidity changed from 95% RH to 0% RH. The humidity change in each step was 5% RH, with an equilibrium criterion of a weight change rate of less than 0.01%/min within 5 minutes and a maximum equilibration time of 2 hours.
A sample of crystal form III of the compound represented by formula 1 (10 mg) was weighed, and dried for 60 minutes at a temperature of 25° C. and a humidity of 0% RH. The moisture absorption characteristics of the sample were tested as the humidity changed from 0% RH to 95% RH, and the desorption characteristics of the sample were tested as the humidity changed from 95% RH to 0% RH. The humidity change in each step was 5% RH, with an equilibrium criterion of a weight change rate of less than 0.01%/min within 5 minutes and a maximum equilibration time of 2 hours.

Series [2] in a line: Stability test (influencing factors and accelerated conditions; HPLC, appearance, XRPD, DSC). As for the experimental part: Appropriate amounts of crystal form II and crystal form III of the compound represented by formula 1 were accurately weighed into 20 mL colorless transparent glass vials, which were placed under corresponding influencing factors (high temperature at 60° C., high humidity of 92.5% RH) and accelerated conditions (40° C./75% RH) respectively. After 1 week and 2 weeks, the samples were removed for HPLC analysis to determine the content and related substances, thereby evaluating the chemical stability of crystal form II and crystal form III. The samples were also characterized by appearance, XRPD, and DSC to assess the physical stability of the two crystal forms. Additionally, samples of crystal form II and crystal form III were accurately weighed into 20 mL colorless transparent glass vials, which were tightly sealed and stored in a −20° C. freezer as standard samples for HPLC analysis.

Series [3] is described as follows: XRPD re-characterization of the precipitated sample after days. Here is the method: 20 mg of the compound represented by formula 1 was weighed into a glass vial, which was placed in a 50° C. water bath with a rotational speed of 400 rpm. 90 times the volume of ethyl acetate as good solvent was added to the vial, and the mixture was heated to obtain a clarified solution, which was maintained at the same temperature for 15 minutes. 70 times the volume of n-heptane as anti-solvent was slowly added dropwise thereto under stirring to precipitate a solid, and the mixture was stirred for another 10 minutes. A sample was taken and centrifuged, naturally dried, and characterized by XRPD as crystal form II.
Following the same operational procedure as in method 3, crystal form II was also obtained by using the good solvent and anti-solvent listed in the table below.
Method: An appropriate amount of sample was taken and spread evenly on a single-crystal silicon wafer, and XRPD testing was conducted at room temperature. The specific experimental parameters were as follows: the light source was CuKα, the X-ray intensity was 40 kV/40 mA, the scanning mode was Theta-theta, the scanning angle range was 4° to 40°, the step size was 0.05°, and the scanning speed was 0.5 seconds per step.

Where [4] appears, read: after 2 weeks under −20° C., high temperature, high humidity, light, and accelerated conditions.

Structures are written as SMILES.

On to `CCS(=O)(=O)N1CC(CC#N)(n2cc(-c3nc(Nc4cnn(C)c4)nc4ccsc34)cn2)C1` [Crystal form III], for which, in series [1], the “weight gain from 0% RH to 95% RH (moisture absorption)” value (“weight gain from 0% RH to 95% RH” below) amounted to 0.4084%. The Appearance result in series [2] (Accelerated (40° C./75%)) was “Bright yellow”; in series [2] (High humidity (92.5% RH)), “Bright yellow”; in series [2] (High temperature (60° C.)), “Bright yellow”; in series [2] (control group, −20° C.), “Bright yellow”. Moreover, the chemical stability result in series [2] (setting [4]) was “good chemical stability”. In addition, in series [2] (setting [4]), the “physical stability (crystal form conversion)” value is “partial conversion of crystal form III to crystal form II”.
Consider `CCS(=O)(=O)N1CC(CC#N)(n2cc(-c3nc(Nc4cnn(C)c4)nc4ccsc34)cn2)C1` [Crystal form II], for which, in series [1] (0% RH to 95% RH), the “hygroscopicity (in words)” value is given as “almost no hygroscopicity”. Also, in series [1], the “weight gain from 0% RH to 95% RH” value amounted to 0.1047%. Besides, the Appearance result in series [2] (Accelerated (40° C./75%)) is recorded as “Yellow”; in series [2] (High humidity (92.5% RH)), “Yellow”; in series [2] (High temperature (60° C.)), “Yellow”; in series [2] (control group, −20° C.) it was “Yellow”. Moreover, the physicochemical stability entry in series [2] (−20° C., high temperature, high humidity, and accelerated conditions) was “good physicochemical stability”. Further, the “crystal form by XRPD after standing” value is “remained as crystal form II” in series [3] (after 6 days, good solvent / methyl tert-butyl ether) and “remained as crystal form II” in series [3] (after 8 days, ethyl acetate / n-heptane).
In the case of `CCS(=O)(=O)N1CC(CC#N)(n2cc(-c3nc(Nc4cnn(C)c4)nc4ccsc34)cn2)C1` [Crystal form I], the “weight gain from 0% RH to 95% RH” value in series [1] is on record as 3.025%.
